According to patent US12570685B2, “2-methoxyestradiol derivatives and medical uses thereof” (INSTITUT PASTEUR KOREA, priority 2019, dated 2026):

Tested on: HUVECs
Assay: Radiation-induced EndMT / stress fiber phenomic screening in HUVECs using the HCS system
Type: cell-based, human
Conditions: 48 hours, compared to IR (control) treated group; for Stress Fiber Pre-: HUVECs pre-treated 1 hour before radiation; for Stress Fiber Pre- / Stress Fiber Post-: Phalloidin; for Stress Fiber Post-: HUVECs treated after 10 Gy irradiation (3 hours)
Description: We established a phenomic screening platform to measure radiation-induced stress fibers and optimized the conditions for high-throughput screening using HUVEC cells to develop compounds targeting RIPF. […] 2-ME derivatives were prepared and their anti-fibrotic activities were tested in vitro [Table 3] and in vivo mouse models [FIGS. 1 and 2]. […] In this test, HUVECs were pre-treated with 2-ME derivatives at 1 hour before radiation and irradiated with 10 Gy. After 48 hours, HUVECs stained with Phalloidin and Hoechst to assess morphological changes Collagen type 1 (BD Collagen I, 354236, Thermo Fisher Scientific) was diluted in 70% ethanol, and then the collagen solution (400 μg/ml) was dispensed into each 384-well plate (6007550, Perkin Elmer, MA, US). After a 1-hour incubation at room temperature, the wells were rinsed twice with Dulbecco's phosphate-buffered saline. HUVECs were seeded at a density of 7×10^2 cells per well onto collagen-coated, 384-well plates and allowed to attach in complete growth media. Cells were then exposed to 10 Gy radiation at room temperature. After irradiation, the cells were incubated for an additional 3 hours. The compounds were tested at a final concentration of 10 μM in 0.5% dimethyl sulfoxide (DMSO; v/v) using an automated liquid handling system (Hummingbird, Analytik Jena, Jena, DE). After the 48-hour treatment, cells were fixed with 4% paraformaldehyde (w/v). The expression of actin filament was determined by incubation with 488-Phalloidin (1:100, MOP-[…], Thermo Fisher Scientific) using direct immunofluorescence staining. The nuclei were stained using Hoechst 33342 (1:1000, MOP-H3570, Thermo Fisher Scientific) at room temperature. For assay validation, a control run was performed. The low control consisted of three 384-well plates that contained irradiated cells, and the high control consisted of three 384-well plates that contained non-irradiated cells. For detecting and visualizing filamentous actin (F-actin) and nuclei, images were collected using an automated high-content imaging system with a 20× magnifying objective (Operetta, PerkinElmer). The acquired images were analyzed using an in-house software tool and Harmony 3.5.1® high-content imaging (Harmony, PerkinElmer) for segmentation of cells.

For CCC(=O)Oc1cc2c(cc1OC)C1CC[C@@]3(C)C(CC[C@@H]3O)C1CC2 (stereo partly shown) [compound 11], the “Stress Fiber Pre-” value (10 Gy) was “O (there were stress fiber decreasing more than 20% compare to IR (control) treated group)” and the “Stress Fiber Post-” value (10 μM) was “O (there were stress fiber decreasing more than 20% compare to IR (control) treated group)”.
COc1cc2c(cc1O)CCC1C2CC[C@]2(C)C(=O)C=CC12 (stereo partly shown) [compound 2] was tested, and the Cell number (HUVECs, 10 Gy, 10 μM) was “X (there were more than 10% changes in the cell number compare to IR (control) treated group)”.
In the case of CCC(=O)Oc1cc2c(cc1OC)C1CC[C@@]3(C)C(CC[C@@H]3OC(=O)CC)C1CC2 (stereo partly shown) [compound 6], the “Stress Fiber Pre-” value (10 Gy) is reported as “O (there were stress fiber decreasing more than 20% compare to IR (control) treated group)”.
For COc1cc2c(cc1OC(C)=O)CCC1C2CC[C@@]2(C)C1CC[C@@H]2OC(C)=O (stereo partly shown) [compound 5], the “Stress Fiber Pre-” value (10 Gy) was “O (there were stress fiber decreasing more than 20% compare to IR (control) treated group)”.
For COc1cc2c(cc1OC(C)=O)CCC1C2CC[C@@]2(C)C1CC[C@@H]2O (stereo partly shown) [compound 10], the “Stress Fiber Pre-” value (10 Gy) was “O (there were stress fiber decreasing more than 20% compare to IR (control) treated group)” and the “Stress Fiber Post-” value (10 μM) was “O (there were stress fiber decreasing more than 20% compare to IR (control) treated group)”.
